Test results: EP0565593B1, “REDUCING PESTICIDAL INTERACTIONS IN CROPS” (priority 1990, dated 1992)

Key:
Assay type in all cases: in vivo
Corn [1] = experiment: Greenhouse test Procedure VI: biocide and antidote in furrow, herbicide PPI in cover layer (Examples 43-47, 59-61; Tables 42-46, 58-60); settings: COUNTER 15G/PURSUIT interaction; Example 47
Text: This procedure describes interaction among herbicide, biocide and antidote when the herbicide is incorporated in a soil cover layer and the biocide and the antidote are applied in a soil furrow containing crop seed before emergence of the crop. The soil and seeding depth were described in Procedure IV. A first container was designated as an untreated control, a second container was designated as a herbicide control, a third container was designated as a herbicide + biocide control and a fourth container as a herbicide + biocide + antidote test container. The biocide and antidote were formulated as granules. The biocide was applied to the soil furrows of the third and fourth containers at an application rate of 1.1 mg of active compound per cm of row. The antidote was applied to the soil furrow of the fourth container at an application rate of 0.37 mg of active compound per cm of row. A measured amount of the herbicide dispersed or dissolved in acetone was applied to a measured quantity of soil. The quantity of soil treated with the herbicide was thoroughly mixed to incorporate the herbicide. Samples of this soil were used to cover the seed beds of the second, third and fourth containers. For each test series, the seed bed of the first container was likewise covered by a soil layer not treated with herbicide and without biocide or antidote in the soil furrow.
The containers were then placed on a bench in a greenhouse. Watering was by subirrigation plus overhead irrigation after the plants emerged. All treatments were run in duplicate. Plant response was observed according to Procedure IV. Variations in this procedure will be noted in the examples.
In continuing tests to evaluate the variations of this invention, a series of tests were conducted to determine the efficacy of the above safeners in Examples 39-42 to alleviate corn injury induced by the interaction of various additional commercial sulfonylurea herbicides with COUNTER 15G insecticide. In this example, the tests were conducted according to Procedure VI above. In modifications of that procedure, herbicides were applied to soil samples as acetone/water suspensions, incorporated by shaking in a closed container, with subsamples used to cover furrow-treated 10.2 cm pots. Pots were subirrigated followed by overhead misting on days 6-10.
This example was designed to test the safening effect of those above safeners used in this test series to relieve corn injury by negative synergism induced by interaction of COUNTER 15G and three imidazolinone herbicides, i.e., imazaquin and imazapyr (used in the POE tests in Example 41) and AC 263222 (a.i. in CADRE® herbicide). As differing from the tests in Example 41, this test was a PPI test according to Procedure VI described above. Observation of test results (Table 43) were taken thirteen 913) days after in-furrow PPI preparation.
This example describes PPI tests to evaluate said test safeners in this series with analogs of the sulfonamide herbicides tested under POE herbicide application procedures described in Example 42. In these tests, conducted according to Procedure VI described above, Herbicide Nos. 20, 22 and 24 were applied PPI with the insecticide and antidote. Observations of tests results were made thirteen days after PPI initiation.
An additional three (3) sulfonamide herbicide analogs were tested simultaneously and under the same conditions described in Example 45.
Another test of this invention involved the safening effects of the safeners in this series against negative synergy inducted by the interaction of COUNTER 15G and a sulfonylurea herbicide (OUST®), Herbicide No. 13, and PURSUIT, an imidazolinone herbicide, No. 6. Test conditions were the same as those in Examples 43-46. Other procedures for applying herbicidal formulations are as described in Example 42. […]

Corn [2] = experiment: Greenhouse test Procedure VII: biocide and antidote in furrow, herbicide POE (Examples 39-42, 48-50, 56-58; Tables 38-41, 47-49, 55-57); settings: in-furrow antidote; COUNTER 15G + sulfonamide herbicides; Table 41
Summary of the method: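 Corn seed was planted in greenhouse pots, with COUNTER 15G insecticide plus antidote granules applied in-furrow (e.g. 1.1 + 0.37 mg a.i./cm, or 227 g/305 m with acetone-applied safeners). About five days later, herbicides in water with 0.25% v/v X-77 were track-sprayed post-emergence at 187 L/ha. Plant response was scored eight days afterward, with two to four replicates.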

Corn [3] = experiment: Multi-crop greenhouse test, herbicide POE (Examples 62-64; Tables 61-63); parameters: inhibition: dose or concentration left out as unconfirmed; settings: for inhibition: Zea mays, Table 63, Biocide No. 1 8.96 Kg/Ha, antidote 4.48 Kg/Ha PPI where in label
Procedure: (§1) Tests according to this invention in various crops indicate widespread application of the invention. In Examples 62-66 below are described tests with a variety of herbicides contacted with COUNTER® 15G in the presence and absence of MON-7400 (Antidote No. 12); MON-13900 (No. 1); MON-4660 (No. 16) and flurazole (No. 16). Those tests were conducted according to Procedures IV or V described above and illustrated further in other foregoing examples. Plants used in all tests were, for crops (as abbreviated in parentheses); cotton (COTT); soybean (SOBE); CORN, grain sorghum (GRSO); wheat (WHEA) and RICE, and the weeds giant foxtail (GIFT) and velvetleaf (VELE). The data in the tables below represent averages of two replications.
(§2) In this test the crops and weeds were planted 1.3 cm deep in 13.7 cm X 27.7 cm pans containing Dupo silt loam soil. The test safeners were applied in acetone solution and COUNTER 15G as dry granules to soil cover layers and incorporated by shaking in a bag. Treated cover layers were placed on seeded pans which were transferred to greenhouse benches and subirrigated. Herbicide was applied POE six (6) days after PPI initiation and observations of plant injury made ten (10) days later; results are shown in Table 61. The herbicide used in this example was BEACON (No. 8).
(§3) The test procedure described in Example 62 was repeated using ACCENT® (Herbicide No. 7) as the herbicide; the biocide and safeners were the same.

cotton (COTT) = experiment: Multi-crop greenhouse test, COUNTER 15G and safener PPI, herbicide POE (Examples 62-64; Tables 61-63); parameters: dose or concentration left out as unconfirmed; settings: Gossypium hirsutum, Table 63, Biocide No. 1 8.96 Kg/Ha, antidote 4.48 Kg/Ha PPI where in label
Procedure: as §1, §2, §3

Giant foxtail (GIFT) = experiment: Multi-crop greenhouse test, herbicide POE (Examples 62-64; Tables 61-63); parameters: dose or concentration left out as unconfirmed; settings: Setaria faberi, Table 63, Biocide No. 1 8.96 Kg/Ha, antidote 4.48 Kg/Ha PPI where in label
Procedure: as §1, §2, §3

RICE = experiment: as above; parameters: dose or concentration left out as unconfirmed; settings: Oryza sativa, Table 63, Biocide No. 1 8.96 Kg/Ha, antidote 4.48 Kg/Ha PPI where in label
Procedure: as §1, §2, §3

Velvetleaf (VELE) = experiment: as above; parameters: dose or concentration left out as unconfirmed; settings: Abutilon theophrasti, Table 63, Biocide No. 1 8.96 Kg/Ha, antidote 4.48 Kg/Ha PPI where in label
Procedure: as §1, §2, §3

grain sorghum (GRSO) = experiment: as above; parameters: dose or concentration left out as unconfirmed; settings: Biocide No. 1 8.96 Kg/Ha, antidote 4.48 Kg/Ha PPI where in label
Procedure: as §1, §2, §3

soybean (SOBE) = experiment: as above; parameters: dose or concentration left out as unconfirmed; settings: Glycine max, Table 63, Biocide No. 1 8.96 Kg/Ha, antidote 4.48 Kg/Ha PPI where in label
Procedure: as §1, §2, §3

wheat (WHEA) = experiment: as above; parameters: dose or concentration left out as unconfirmed; settings: Triticum aestivum, Table 63, Biocide No. 1 8.96 Kg/Ha, antidote 4.48 Kg/Ha PPI where in label
Procedure: as §1, §2, §3

[4] = Herb. No. 18 (PURSUIT) 0.009 Kg/Ha POE
[5] = Herb. No. 18 (PURSUIT) 0.035 Kg/Ha POE
[6] = Herb. No. 18 (PURSUIT) 0.14 Kg/Ha POE

Structure (SMILES): N#CCOc1ccc(Cl)c2cccnc12 [Antidote No. 33, Acetonitrile, [(5-chloro-8-quinolinyl)oxy]-]
- safening (Corn [1]): good activity
- corn injury (Corn [2]): significantly reduced
- corn injury (Corn [3]; COUNTER 15G and BEACON, Example 62): effectively reduced

Structure (SMILES): CCc1cnc(C2=NC(C)(C(C)C)C(=O)N2)c(C(=O)O)c1 (stereo not drawn) [Herb. No. 18]
- inhibition (cotton (COTT); [4]): 40%
- inhibition (cotton (COTT); [5]): 45%
- inhibition (cotton (COTT); [6]): 50%
- inhibition (Corn [3]; [4]): 5%
- inhibition (Corn [3]; [5]): 25%
- inhibition (Corn [3]; [6]): 40%
- inhibition (Giant foxtail (GIFT); [4]): 60%
- inhibition (Giant foxtail (GIFT); [5]): 80%
- inhibition (Giant foxtail (GIFT); [6]): 80%
- inhibition (RICE; [4]): 20%
- inhibition (RICE; [5]): 45%
- inhibition (RICE; [6]): 60%
- inhibition (Velvetleaf (VELE); [4]): 75%
- inhibition (Velvetleaf (VELE); [5]): 95%
- inhibition (Velvetleaf (VELE); [6]): 100%
- inhibition (grain sorghum (GRSO); Table 63, Herb. No. 18 (PURSUIT) 0.009 Kg/Ha POE): 60%
- inhibition (grain sorghum (GRSO); Table 63, Herb. No. 18 (PURSUIT) 0.035 Kg/Ha POE): 65%
- inhibition (grain sorghum (GRSO); Table 63, Herb. No. 18 (PURSUIT) 0.14 Kg/Ha POE): 75%
- inhibition (soybean (SOBE); [4]): 5%
- inhibition (soybean (SOBE); [5]): 10%
- inhibition (soybean (SOBE); [6]): 10%
- inhibition (wheat (WHEA); [4]): 0%
- inhibition (wheat (WHEA); [5]): 20%
- inhibition (wheat (WHEA); [6]): 35%
